Assay results published in US12390459B2, “Methods for solid tumor treatment” (CRITITECH, INC., priority 2016, dated 2025).
Like-named read-outs stand apart in the source and are kept apart here.

Tests used:
[1] = tested on: MDA-MB-231 human breast cancer xenografts; settings: for complete tumor regressions (animals): 30 mg/kg IV qwk×3; for animal deaths: 30 mg/kg IV qwk×3, 10 mice; for mean tumor weight: 30 mg/kg IV qwk×3, Day 29; for inhibition of growth of the xenografts: 30 mg/kg IV qwk×3, Day 29 vs vehicle; for % difference at nadir of response: 30 mg/kg IV qwk×3, Day 33; for tumor-free animals at the end of the study: 30 mg/kg IV qwk×3, Day 61; for tumor-free animals: IV treated group, Day 49
Source text: Study Design: A total of 88 female NCr-nu/nu mice were implanted with MDA-MB-231 breast tumor fragments from an in vivo passage subcutaneously (SC) on the right flank. The day of tumor cell implantation (Aug. 4, 2016) was designated as Day 0.
The NanoPac™ and NanoDoce™ are suspensions. Prior to filling each syringe and between the injections of each animal, the test article was gently swirled/inverted. Intratumoral administration of the test material entailed the use of six needle tracks per tumor (27 G ½ inch needle). One sixth of the dose volume was injected as a slow bolus in each track, with ˜15 seconds pause before removing the needle slowly, and moving to the next injection site spaced over the surface of the tumor. The animals were observed once daily for mortality and moribundity. The mice were weighed and the tumor measurements were taken twice weekly starting on the first day of treatment. Length and width were measured for each tumor. Tumor volume was determined using the formula for an ellipsoid sphere: Length×Width^2/2=Volume(mm^3)
This formula was also used to calculate tumor weight, assuming unity density (1 mm^3=1 mg). Limit of tumor detection was 32 mg (4×4 mm). The experiment lasted for 61 days from the day of tumor implant. Animals whose weight decreased more than 30% from the weight on the first day of treatment or whose tumor reached 4,000 mg in weight, ulcerated, or sloughed off was euthanized prior to study termination.

[2] = tested on: MX-1 human breast cancer xenografts; settings: for animal deaths / animals euthanized: 30 mg/kg IV qwk×3, 10 mice; for inhibition of growth of the xenografts: 30 mg/kg IV qwk×3 vs vehicle
Source text: Tumor model: A total of 88 female NCr-nu/nu mice were implanted with MX-1 breast tumor fragments from an in vivo passage subcutaneously (SC) on the right flank. The day of tumor cell implantation was designated as Day 0.
The NanoPac™ and NanoDoce™ are suspensions. Prior to filling each syringe and between the injections of each animal, the test article was gently swirled/inverted. Animals were observed once daily for mortality and moribundity. Adverse signs were documented by exception only. Body weights were collected twice weekly beginning on SD. Tumor measurements were taken twice weekly beginning on SD, using a digital caliper. Length and width were measured for each tumor. Tumor volume was determined using the formula for an ellipsoid sphere: Length×Width 2/2=Volume (mm^3). This formula was also used to calculate tumor weight, assuming unity density (1 mm^3=1 mg). Limit of tumor detection is 32 mg (4×4 mm). The experiment lasted for 63 days from the day of tumor implant. Animals whose weight decreased more than 30% from the weight on the first day of treatment or whose tumor reached 4,000 mg in weight, ulcerated, or sloughed off was euthanized prior to study termination.

[3] = tested on: PC-3 human prostate carcinoma; assay: PC-3 prostate carcinoma xenograft, Study P-PPr-01-2015; assay type: in vivo, nude mouse; settings: IV 30 mg/kg qwk×3
Procedure: Tumors were measured twice per week. Partial treatment outcome was based on percent tumor growth inhibition (% TGI), defined as the percent difference between the Day 32 median tumor volumes of treated and vehicle-control mice.

[4] = tested on: JIMT-1 human breast cancer xenografts; assay: JIMT-1 human breast cancer xenograft study; assay type: in vivo, CB.17 SCID mice; settings: 30 mg/kg iv qwk×3
Procedure: Test articles were as follows:
Adjust volume accordingly for body weight. […] Animals were monitored individually. […] When the endpoint is reached, the animals were euthanized.
Tumor growth inhibition was evaluated on D29 (the last day of dosing for animals receiving 5 admins, G1, 3, 4) at 1000 mm^3 and the study ended on D50 with a revised tumor volume endpoint of 600 mm^3 for overall survival analysis.

[5] = Paclitaxel concentration in JIMT-1 tumor tissue (LC/MS/MS); assay type: in vivo, CB.17 SCID mice; settings: Group 5: 30 mg/kg, IV, qwk × 3; day 50, 35 days after last dose; individual animals
Procedure: The timing of the analysis for each group relative to the last day of drug administration is as follows: • 21 days after last dose for groups 1, 3 and 4; • 49 days for group 2; and • 35 days for group 5.
Tissue processing was carried out as follows: • 1. Control tumor tissue and tumor tissue samples were weighed and three volumes of water were added to each to yield samples with a dilution factor of 4. • 2. Tumor tissues were homogenized with a homogenizer FastPrep®-24 using a speed of 4.0 m/sec for 100 sec. • 3. 50 μL of control tumor tissue homogenate was added to separate wells of a 96 well plate for STDs, QC samples and blanks. • 4. To the control tumor tissue homogenates, 50 μL of the appropriate solution was added for STDs and QC samples (50 μL of diluent was added for blanks) • 5. For tumor tissue homogenate study samples, 50 μL of each sample was added to separate well of the 96-well plate and 50 μL aliquot of diluent was added to each tissue sample. • 6. To all samples, 200 μL of internal standard (200 ng/mL Warfarin) solution in ACN was added. • 7. The plate was vortexed vigorously for 10 minutes and then centrifuged for 10 minutes at 4000 rpm (Sorvall Legend X1R centrifuge, Thermo Scientific) at 15° C. • 8. After centrifugation, 100 μL aliquots of supernatant were transferred to a new 96-well plate containing 100 μL of water in each well. • 9. […]

[6] = Particle size analysis (light obscuration and laser diffraction); assay type: physicochemical
Procedure: Particle size was analyzed by both light obscuration and laser diffraction methods. An Particle Sizing Systems AccuSizer 780 SIS system was used for the light obscuration method and Shimadzu SALD-7101 was used for the laser diffraction method.
The vials were vortexed for approximately 10 seconds and then sonicated in a sonic bath approximately 1 minute.
The vial was vortexed for approximately 10 seconds and then sonicated in a sonic bath for approximately 2 minutes. This suspension was used for laser diffraction analysis. Unused suspension was poured into a 125 mL particle-free plastic bottle, which was then filled to approximately 100 mL with filtered dispersant. The suspension was vortex for approximately 10 seconds and then sonicated in the sonic bath for approximately 2 minutes. This diluted suspension was used for light obscuration analysis.
A background test was first performed prior to analyzing particles on the AccuSizer 780 SIS. A new particle-free plastic bottle was filled with blank suspension solution by pumping from a reservoir, using a peristaltic pump, through a 0.22 μm Millipore filter and into the bottle. A background analysis was run to ensure the particle/mL count was below 100 particles/mL. […] Once the analysis was completed, the background data was removed and any measurement with less than four counts was removed.
To analyze particles on SALD-7101 using a batch cell, the analysis was started by choosing Manual Measurement. The refractive index was set as 1.5 to 1.7. The batch cell was filled with filtered dispersant just past the etched line. The blank measurement was ran. […] The measurements were executed, and the resulting graph with the highest level of confidence was selected; background was automatically accounted for.

[7] = Docetaxel dissolution study, USP Apparatus II (Paddle); assay type: physicochemical; settings: for Docetaxel Dissolution: methanol/water 15/85, 37° C., pH 7
Procedure: At 5, 15, 30, 60, 120 and 225 minutes, a 5 mL aliquot was removed, filtered through a 0.22 μm filter, and analyzed on a UV/VIS spectrophotometer at 232 nm. Absorbance values of the samples were compared to those of standard solutions prepared in dissolution media to determine the amount of material dissolved.

[8] = BET surface area analysis; assay type: physicochemical
Procedure: As used herein, the “specific surface area” is the total surface area of the taxane particle per unit of taxane mass as measured by the Brunauer-Emmett-Teller (“BET”) isotherm (i.e.: the BET SSA). As will be understood by those of skill in the art, the “taxane particles” can include both agglomerated taxane particles and non-agglomerated taxane particles; since the SSA is determined on a per gram basis it takes into account both agglomerated and non-agglomerated taxane particles in the composition. The BET specific surface area test procedure is a compendial method included in both the United States Pharmaceopeia and the European Pharmaceopeia.
A known mass between 200 and 300 mg of the analyte was added to a 30 mL sample tube. […] The automated test was then carried out using the BETWIN® software package and the surface area of each sample was subsequently calculated.

[9] = Paclitaxel dissolution study, USP Apparatus II (Paddle); assay type: physicochemical; settings: methanol/water 50/50 (v/v), 37° C., pH 7, 75 rpm
Procedure: Beads were transferred to a stainless steel mesh container and placed in the dissolution bath containing methanol/water 50/50 (v/v) media at 37° C., pH 7, and a USP Apparatus II (Paddle), operating at 75 rpm. At 10, 20, 30, 60, and 90 minutes, a 5 mL aliquot was removed, filtered through a 0.22 μm filter and analyzed on a U(V/V)is spectrophotometer at 227 nm. Absorbance values of the samples were compared to those of standard solutions prepared in dissolution media to determine the amount of material dissolved.

CC(=O)O[C@@]12CO[C@@H]1C[C@H](O)[C@@]1(C)C(=O)[C@H](O)C3=C(C)[C@@H](OC(=O)[C@H](O)[C@@H](NC(=O)OC(C)(C)C)c4ccccc4)C[C@@](O)([C@@H](OC(=O)c4ccccc4)[C@H]21)C3(C)C [docetaxel]
complete tumor regressions (animals) [1]: 10
animal deaths [1]: no animal deaths
mean tumor weight [1]: 16 mg
inhibition of growth of the xenografts [1]: significantly inhibited the growth
% difference at nadir of response [1]: −99.8%
mean tumor volume ([1]; 30 mg/kg IV qwk×3, Day 40): 0
tumor-free animals at the end of the study [1]: 10
tumor-free animals [1]: ten
animal deaths / animals euthanized [2]: two animals euthanized for body weight loss >30%
mean tumor weight ([2]; 30 mg/kg IV qwk×3, Day 28): 0.9 mg
animals with completely regressed tumors ([2]; 30 mg/kg IV qwk×3, Day 31): nine
surviving animals tumor-free at the end of the study ([2]; 30 mg/kg IV qwk×3, Day 63): eight
inhibition of growth of the xenografts [2]: significantly inhibited the growth

CC(=O)O[C@H]1C(=O)[C@@]2(C)[C@H]([C@H](OC(=O)c3ccccc3)[C@]3(O)C[C@H](OC(=O)[C@H](O)[C@@H](NC(=O)c4ccccc4)c4ccccc4)C(C)=C1C3(C)C)[C@]1(OC(C)=O)CO[C@@H]1C[C@@H]2O [paclitaxel]
TGI [3]: significant TGI
survival extension [3]: significantly improved survival extension
complete tumor regressions (animals) [1]: six
animal deaths [1]: without animal deaths
mean tumor weight [1]: 118 mg
inhibition of growth of the xenografts [1]: significantly inhibited the growth
% difference at nadir of response [1]: −97.4%
tumor-free animals at the end of the study [1]: three
tumor-free animals [1]: three
animal deaths / animals euthanized [2]: without animal deaths
mean tumor weight ([2]; 30 mg/kg IV qwk×3, Day 24): 309 mg
% difference at nadir of response ([2]; 30 mg/kg IV qwk×3, Day 31): −86.0%
inhibition of growth of the xenografts [2]: significantly inhibited the growth
TGI [4]: significant TGI
survival extension [4]: significantly improved survival extension
Paclitaxel Concentration in tumor tissue [5]: BQL < 1 ng/g

CC(=O)O[C@@]12CO[C@@H]1C[C@H](O)[C@@]1(C)C(=O)[C@H](O)C3=C(C)[C@@H](OC(=O)[C@H](O)[C@@H](NC(=O)OC(C)(C)C)c4ccccc4)C[C@@](O)([C@@H](OC(=O)c4ccccc4)[C@H]21)C3(C)C [Docetaxel Raw Material, docetaxel]
Number Mean [6]: 1.58 um
Volume Mean [6]: 5.05 um
Docetaxel Dissolution ([7]; 0 minutes): 0.0%
Docetaxel Dissolution ([7]; 5 minutes): 3.2%
Docetaxel Dissolution ([7]; 15 minutes): 6.9%
Docetaxel Dissolution ([7]; 30 minutes): 11.2%
Docetaxel Dissolution ([7]; 60 minutes): 16.4%
Docetaxel Dissolution ([7]; 120 minutes): 22.4%
Docetaxel Dissolution ([7]; 225 minutes): 26.8%
Dissolution (30 min) ([7]; methanol/water 15/85 (v/v), 37° C., pH 7, 75 rpm): 11%

CC(=O)O[C@H]1C(=O)[C@@]2(C)[C@H]([C@H](OC(=O)c3ccccc3)[C@]3(O)C[C@H](OC(=O)[C@H](O)[C@@H](NC(=O)c4ccccc4)c4ccccc4)C(C)=C1C3(C)C)[C@]1(OC(C)=O)CO[C@@H]1C[C@@H]2O [Paclitaxel Raw Material, paclitaxel]
Number Mean [6]: 1.16 um
Surface Area ([8]; BET): 10.4 m^2/g
BET surface area ([8]; Example 1): 7.25 m^2/g
Dissolution (30 min) [9]: 18%
